The results in this text go back to article PMC7669657 (Nature chemical biology, 2020).

The target in experiment [1] is T1, NSD1 SET domain (Homo sapiens, UniProt Q96L73).
T1 sequence (Q96L73 1852-2085): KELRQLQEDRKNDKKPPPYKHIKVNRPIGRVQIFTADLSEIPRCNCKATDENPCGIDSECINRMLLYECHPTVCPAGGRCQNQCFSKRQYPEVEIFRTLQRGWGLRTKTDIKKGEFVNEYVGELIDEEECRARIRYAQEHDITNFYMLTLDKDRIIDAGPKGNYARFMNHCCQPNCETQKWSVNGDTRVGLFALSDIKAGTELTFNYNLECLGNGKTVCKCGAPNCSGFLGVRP
The experiment is classed as binding. The note with it: 150 μM 15N NSD1 SET, 1H-15N HSQC.

Experiment [2] deals with T2, NSD1 SET domain (Homo sapiens, UniProt Q96L73).
T2 sequence (Q96L73 1852-2105): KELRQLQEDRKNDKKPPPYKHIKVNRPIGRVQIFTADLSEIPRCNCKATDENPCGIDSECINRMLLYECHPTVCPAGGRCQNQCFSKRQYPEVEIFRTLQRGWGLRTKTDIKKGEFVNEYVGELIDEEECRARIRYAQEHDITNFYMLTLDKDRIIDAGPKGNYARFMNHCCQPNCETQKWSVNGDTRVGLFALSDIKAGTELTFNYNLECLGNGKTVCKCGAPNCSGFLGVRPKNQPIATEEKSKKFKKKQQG
Briefly: MS covalent engagement and kinetics, NSD1 SET. Type of experiment: binding. The note with it: 1 μM NSD1 SET, 50 μM compound, 18 h, 32 °C.

As to `COc1cc(Br)cc2sc(N)nc12` [Compound 8], the “chemical shift perturbations / binding by NMR” value in experiment [1] is given as “less pronounced chemical shift perturbations”.
In the case of `NC(=O)/C=C/c1cc(O)c2nc(N)sc2c1` [Compound 9], in experiment [1], the “chemical shift perturbations / binding by NMR” value was “only weakly interact”. For the same compound, the “covalent binding by MS” value in experiment [2] is “lack covalent binding”.
